Test results: patent US20080199897A1, “CLASS II HISTONE DEACETYLASE WHOLE CELL ENZYME ASSAY” (MethylGene Inc., priority 2007, published 2008)
Structures can show the parent of a compound that is named as a salt. Where two headings read alike, the source gives them in different places. Values belong to the compound of their own block, whether it stands above or below them.

Key:
[1] = tested on: Class I and Class II HDACs; assay: enzymatic reactivity of substrates for Class I and Class II HDACs; assay type: biochemical; conditions: FIG. 12 legend
Method: (§1) A 30 mM stock of Boc-Lys(TFA)-AMC substrate was prepared in DMSO. 2 μl test compound in DMSO was diluted in 50 μl buffer (25 mM HEPES, pH 8.0, 137 mM NaCl, 2.7 mM KCl, 1 mM MgCl2, 0.1% BSA) and pre-incubated with Class II HDAC enzyme (30 μl of a final enzyme concentration of 0.1-0.2 nM) for 10 minutes at room temperature. Reaction was started by adding 18 μl Boc-Lys(TFA)-AMC substrate and incubating at 37° C. for 20-30 minutes. The reaction was stopped by adding 50 μl trypsin (1 mg/ml) and a known HDAC inhibitor. The plate was then incubated in the dark for 20 minutes at room temperature and read with Ex=360 nm, Em=470 nm, cutoff filter at 435 nm.
as §1, with “of Boc-Lys(thioAc)-AMC” for “of Boc-Lys(TFA)-AMC”, “in 15” for “in 50”, “enzyme (15” for “enzyme (30”, “of 50-500” for “of 0.1-0.2”, “μl Boc-Lys(thioAc)-AMC” for “μl Boc-Lys(TFA)-AMC”, “for 30-60” for “for 20-30”

293T = assay: whole cell deacetylase assay with Boc-Lys(Ac)-AMC in 293T cells; conditions: read-out: whole cell deacetylase IC50, 293T
Method: (§2) Freshly trypsinized cells were dispensed into 96-well black Costar E1A/RIA plates (Corning Inc., Corning, N.Y.). Small molecule substrate Boc-Lys(Ac)-AMC (Bachem Biosciences Inc., King of Prussia, Philadelphia) was added to cell suspension with the final concentration of 300 uM. Cells were placed in 37° C. incubator with 5% CO2 for 90 minutes. […] With the presence of 1% NP-40, both excellular and intracellular HDAC activity was measured in cultured cells altogether. Fluorescence was developed for 15 minutes at 37 C and read in a fluorometer (SPECTRAMAX GeminiXS, Molecular Devices, Sunnylvale, Calif.) with an excitation wavelength at 360 nm, emission at 470 nm, and a cutoff of 435 nm.

[2] = tested on: total HDAC activity in human white blood cells; assay: ex vivo inhibition of whole cell HDAC activity in human white blood cells; assay type: cell-based; conditions: 16 hours incubation; Boc-Lys(ac)-AMC substrate
Method: Whole blood (human or mouse) was centrifuged at 2500 rpm for 10 minutes at ambient temperature in a Sorvall RT-7 centrifuge (Mandel Scientific Co., Guelph, Ontario). Plasma was removed and buffy coat was collected. Five volumes of Erythrocyte Lysis Buffer (EL) (Qiagen Canada Inc., Mississauga, Ontario) were added to buffy coat. Buffy coat was incubated on ice for 20 minutes before it was centrifuged at 400 g for 10 minutes at 4° C. Supernatant was removed and buffy coat was washed twice with EL buffer and re-centrifugation. Buffy coat was resuspended in RPMI media and cells (white blood cells) were counted with trypan blue exclusion. White blood cells were plated into 96-well dish in RPMI plus 10% fetal bovine serum. HDAC small molecule substrate Boc-Lys(ac)-AMC was added to cell suspensions and incubated with cells for 90 minutes at 37° C. before reaction was stopped, and fluorescence was developed and read.
Human white blood cells (buffy coat) isolated from human donors were plated into 96-well dish in RPMI plus 10% fetal bovine serum. HDAC inhibitors with a range of dilutions were incubated with cells for 16 hours at 37 C with 5% CO2. HDAC small molecule substrate Boc-Lys(ac)-AMC was added into cell suspensions and incubated with cells for 90 minutes before reaction was stopped, and fluorescence was developed and read.

A549 = assay: whole cell deacetylase assay with Boc-Lys(Ac)-AMC in A549 cells
Method: as §2

Du145 = assay: whole cell deacetylase assay with Boc-Lys(Ac)-AMC in Du145 cells
Method: as §2

HCT116 = assay: whole cell deacetylase assay with Boc-Lys(Ac)-AMC in HCT116 cells
Method: as §2

Jurkat T = assay: whole cell deacetylase assay with Boc-Lys(Ac)-AMC in Jurkat T cells; conditions: read-out: whole cell deacetylase IC50, Jurkat T
Method: as §2

Panc-1 = assay: whole cell deacetylase assay with Boc-Lys(Ac)-AMC in Panc-1 cells; conditions: read-out: whole cell deacetylase IC50, Panc-1, pre-incubated with inhibitor 16 hours, Boc-Lys(Ac)-AMC substrate, mean of at least 2 experiments
Method: as §2

[3] = tested on: CD-1 mouse whole blood cells; assay: deacetylase activity in serum from mouse whole blood contacted with substrate; assay type: cell-based; conditions: 300 uM substrate
Method: CD-1 Mouse blood was collected in heparin tubes and cells were counted by Coulter counter (Beckman Coulter, Ville St. Laurent, Quebec). The amount of whole blood containing 1.6×10E6 white blood cells was aliquoted and the volume was brought up to 200 ul with RPMI (+10% FBS). Boc-Ac-Lys-AMC was added to a final concentration of 300 uM. After various amounts of time, the mix was spun (400×g for 5 min), and 50 ul of the supernatant (serum) was transferred to a 96-well plate. The amount of deacetylated product Boc-Lys-AMC present in the supernatant was detected by adding an equal volume of the developer mix and reading after 15 minutes incubation. […] Thus total HDAC activity in primary cells could be easily monitored in bodily fluid where animals were contacted with HDAC substrates ex vivo.

293T cells = assay: intracellular and excellular deacetylase activity of 293T cells; assay type: cell-based, human; conditions: 300 uM substrate
Method: Freshly trypsinized cells (293T) were dispensed into 96-well black Costar E1A/RIA plates (Corning Inc., Corning, N.Y.). Small molecule substrate Boc-Lys(Ac)-AMC (Bachem Biosciences Inc., King of Prussia, Philadelphia) were added to cell suspension with the final concentration of 300 uM. Cells were placed in 37° C. incubator with 5% CO2 for indicated time period. Supernatant was collected if necessary and subject to spinning. Reaction was stopped by adding a freshly prepared Fluor-de-Lys™ developer (Biomol, Plymouth Meeting, Philadelphia) with 1 uM TSA (Biomol, Plymouth Meeting, Philadelphia) in assay buffer (25 mM Tris, HCl pH8.0, 137 mM NaCl, 2.7 mM KCl, 1 mM MgCl2) plus 1% NP-40 into supernatant or cell pellets. Fluorescence was developed for 15 minutes at 37° C. and read in a fluorometer (SPECTRAMAX GeminiXS, Molecular Devices, Sunnylvale, Calif.) with an excitation wavelength at 360 nm, emission at 470 nm, and a cutoff of 435 nm. […] In contrast, when there is no substrates added, neither supernatant from cultured cells nor cell pellets have HDAC activity.

Structure (SMILES): CC(=S)NCCCCC(NC(=O)OC(C)(C)C)C(=O)Nc1ccc2c(C)cc(=O)oc2c1 (stereo not shown) [Boc-Lys(thioAc)-AMC]
HDAC class specificity of substrate [1]: specific for Class II HDACs

Structure (SMILES): CC(=O)O[C@H]1C(=O)[C@@]2(C)[C@H]([C@H](OC(=O)c3ccccc3)[C@]3(O)C[C@H](OC(=O)[C@H](O)[C@@H](NC(=O)c4ccccc4)c4ccccc4)C(C)=C1C3(C)C)[C@]1(OC(C)=O)CO[C@@H]1C[C@@H]2O [Taxol]
IC50 (293T; Homo sapiens, HEK-293T): > 50000 nM

IC50 (A549; Homo sapiens, A549, read-out: whole cell deacetylase IC50, A549): 20 nM
IC50 (Du145; Homo sapiens, DU-145, read-out: whole cell deacetylase IC50, Du145): 50 nM
IC50 (HCT116; Homo sapiens, HCT-116, read-out: whole cell deacetylase IC50, HCT116): 60 nM
IC50 (Jurkat T; Homo sapiens, Jurkat): 40 nM
Structure (SMILES): O=C(/C=C/c1ccc(CN(CCO)CCc2c[nH]c3ccccc23)cc1)NO [LAQ-824]
inhibition of whole cell HDAC activity in human white blood cells [2]: dose-dependent inhibition
IC50 (293T; Homo sapiens, HEK-293T): 40 nM

Structure (SMILES): Cc1cc(=O)oc2cc(NC(=O)[C@H](CCCCNC(=O)C(F)(F)F)NC(=O)OC(C)(C)C)ccc12 [Boc-Lys(Tfa)-AMC]
HDAC class specificity of substrate [1]: specific for Class II HDACs

IC50 (A549; read-out: whole cell deacetylase IC50, A549, A549 cells, pre-incubated with inhibitor 16 hours, Boc-Lys(Ac)-AMC substrate, mean of at least 2 experiments): 400 nM
IC50 (Du145; read-out: whole cell deacetylase IC50, Du145, Du145 cells, pre-incubated with inhibitor 16 hours, Boc-Lys(Ac)-AMC substrate, mean of at least 2 experiments): 300 nM
IC50 (HCT116; read-out: whole cell deacetylase IC50, HCT116, HCT116 cells, pre-incubated with inhibitor 16 hours, Boc-Lys(Ac)-AMC substrate, mean of at least 2 experiments): 3000 nM
IC50 (Panc-1): 500 nM
IC50 (Jurkat T; Jurkat T cells, pre-incubated with inhibitor 16 hours, Boc-Lys(Ac)-AMC substrate, mean of at least 2 experiments): 300 nM
Structure (SMILES): Nc1ccccc1NC(=O)c1ccc(CNC(=O)OCc2cccnc2)cc1 [MS-275]
IC50 (293T; 293T cells, pre-incubated with inhibitor 16 hours, Boc-Lys(Ac)-AMC substrate, mean of at least 2 experiments): 2000 nM

cell permeability [3]: permeable to come out from cells
Structure (SMILES): Cc1cc(=O)oc2cc(NC(=O)[C@H](CCCCN)NC(=O)OC(C)(C)C)ccc12 [Boc-Lys-AMC]

Structure (SMILES): CC(=O)NCCCC[C@H](NC(=O)OC(C)(C)C)C(=O)Nc1ccc2c(C)cc(=O)oc2c1 [Boc-Lys(Ac)-AMC]
HDAC class specificity of substrate [1]: specific for Class I HDACs, especially HDAC1, HDAC2 and HDAC6
cell permeability [3]: permeable to go inside cells
cell permeability (293T cells): could permeablize into cells
